Data as given in US20260083851A1 (AVILAR THERAPEUTICS, INC., priority 2022, published 2026).
Read-outs that look alike come from different tables or passages of the source. Starred links: 1 amine or outer side, 2 acyl side, 3 side chain; linkers in the order of their positions; H or OH if unused. Positions of bridges follow the written chain, without caps; N, C: chain ends. Non-standard residues stand in square brackets, D forms with d. Residues, ends and D or L forms follow the SMILES beside them. ξ: configuration not given here. *: point of attachment. X1 = O=C(CCOCC(COCCC(=O)NCCOCCOCCOCCOCC1OCC(Nc2cncc(C(F)(F)F)n2)C(O)C1O)NCC(=O)*)NCCOCCOCCOCCOCC1OCC(Nc2cncc(C(F)(F)F)n2)C(O)C1O; ξPro(4ξ-NH2) = O=C(C1CC(N[*:3])CN1[*:1])[*:2]

Key:
[1] = target: T1, ASGPR receptor on HepG2 cells (ternary complex with AF488-labeled antibody) (Homo sapiens, UniProt P07306); test: Ternary complex formation assay (flow cytometry, cell-associated AF488 fluorescence); type: cell-based
T1 construct: host or cells: HepG2
T1 sequence (P07306 1-291): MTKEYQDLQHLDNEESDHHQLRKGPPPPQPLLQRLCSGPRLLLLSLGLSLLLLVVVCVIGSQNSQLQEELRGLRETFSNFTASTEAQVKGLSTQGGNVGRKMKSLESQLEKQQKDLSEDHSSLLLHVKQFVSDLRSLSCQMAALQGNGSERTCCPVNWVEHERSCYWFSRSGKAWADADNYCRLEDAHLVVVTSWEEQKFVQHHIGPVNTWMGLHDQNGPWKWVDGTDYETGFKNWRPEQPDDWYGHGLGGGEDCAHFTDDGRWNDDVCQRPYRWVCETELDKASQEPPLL
T1 sequence (P07307 1-311 partner): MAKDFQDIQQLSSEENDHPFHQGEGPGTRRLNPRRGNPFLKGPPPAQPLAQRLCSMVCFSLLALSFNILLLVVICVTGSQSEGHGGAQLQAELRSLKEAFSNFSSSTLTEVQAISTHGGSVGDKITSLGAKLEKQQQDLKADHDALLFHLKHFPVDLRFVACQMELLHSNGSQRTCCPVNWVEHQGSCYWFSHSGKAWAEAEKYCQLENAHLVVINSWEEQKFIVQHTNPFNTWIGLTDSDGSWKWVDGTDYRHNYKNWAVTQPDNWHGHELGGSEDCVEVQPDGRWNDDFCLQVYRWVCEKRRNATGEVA
Experimental: Human IgG (Sigma-Aldrich, 14506) was covalently labeled with Alexa Fluor 488 using the Alexa Fluor™ 488 Protein Labeling Kit (Thermo Fisher, A10235) following the manufacturer's instructions. HepG2 cells (ATCC, HB-8065) were cultured to about 70% confluence and harvested by trypsinization. Single cell suspensions of HepG2 cells were plated in 96 well plates at 1×10^5 cells/well in cell culture media (DMEM supplemented with 10% FBS) and placed at 4° C. For studies using human IgG, cells were incubated with 100 nM AF488-labeled anti-human IgG and serial dilutions of IgG-based degrader for 1 hour at 4° C. For studies using DNP, cells were incubated with 100 nM AF488-labeled polyclonal rabbit anti-dinitrophenyl (DNP) antibodies (ThermoFisher) and serial dilutions of DNP-based degrader for 1 hour at 4° C. After washing once with ice-cold PBS containing 0.1% BSA and 0.1% sodium azide, cells were resuspended in 150 uL PBS+0.1% BSA and cell-associated AF488 fluorescence was measured by flow cytometry using the iQue® Screener PLUS Flow Cytometer (IntelliCyt). […]

ASGPR = target: T2, ASGPR (Homo sapiens, UniProt P07306); test: ASGPR SPR binding
T2 construct: biotin (biotinylated)
T2 sequence (P07306 1-291): T1 sequence (P07306 1-291)

IgG = IgG SPR binding; conditions: second table, read-out: IgG KD
[2] = read-out: TCF EC50, 100 nM AF488-labeled antibody, 1 hour at 4° C., the 25th table, class symbols
[3] = second table, read-out: ASGPR KD
[4] = 100 nM AF488-labeled antibody, 1 hour at 4° C., the 25th table, class symbols, read-out: TCF EC50
[5] = read-out: ASGPR KD, second table

Row | EC50 [1, 4] [nM] | SMILES | EC50 [1, 2] [nM] | Kd (ASGPR; [3]) [µM] | Kd (IgG) [µM] | EC50 ([1]; read-out: TCF EC50, 100 nM AF488-labeled antibody, 1 hour at 4° C., the 25th table, numeric bounds, nM from footnote) [nM] | Kd (ASGPR; [5]) [µM]
1 |  | CC(C)CC1NC(=O)C(Cc2cnc[nH]2)NC(=O)C(Cc2c[nH]c3ccccc23)NC(=O)C(C)NC(=O)C2CSSCC(NC(=O)C(Cc3c[nH]c4ccccc34)NC(=O)C(C(C)C)NC(=O)C(CC(C)C)NC(=O)C(CCC(=O)O)NC(=O)CNC1=O)C(=O)NC(C(C)O)C(=O)N1CCCC1C(=O)N1CC(NC(=O)COc3ccc(CC(=O)NCC4OCC(Nc5cncc(C(F)(F)F)n5)C(O)C4O)cc3)CC1C(=O)NC(CC(=O)O)C(=O)N2 (stereo not drawn) [compound 37] | < 100 | < 0.1 | < 0.1 |  | 
2 | < 100 | CC(C)CC1NC(=O)C(Cc2cnc[nH]2)NC(=O)C(Cc2c[nH]c3ccccc23)NC(=O)C(C)NC(=O)C2CSSCC(NC(=O)C(Cc3c[nH]c4ccccc34)NC(=O)C(C(C)C)NC(=O)C(CC(C)C)NC(=O)C(CCC(=O)O)NC(=O)CNC1=O)C(=O)NC(C(C)O)C(=O)N1CCCC1C(=O)N1CC(NC(=O)CCOCCOCCOCCOCCNC(=O)CCCc3cn(CCCCCC(=O)NC(COCCC(=O)NCCOCCOCCOCCOCC4OCC(Nc5cncc(C(F)(F)F)n5)C(O)C4O)COCCC(=O)NCCOCCOCCOCCOCC4OCC(Nc5cncc(C(F)(F)F)n5)C(O)C4O)nn3)CC1C(=O)NC(CC(=O)O)C(=O)N2 (stereo not drawn) [compound 82] |  | < 0.1 | < 0.1 |  | 
3 |  | CC(C)CC1NC(=O)C(Cc2cnc[nH]2)NC(=O)C(Cc2c[nH]c3ccccc23)NC(=O)C(C)NC(=O)C2CSSCC(NC(=O)C(Cc3c[nH]c4ccccc34)NC(=O)C(C(C)C)NC(=O)C(CC(C)C)NC(=O)C(CCC(=O)O)NC(=O)CNC1=O)C(=O)NC(C(C)O)C(=O)N1CCCC1C(=O)N1CC(NC(=O)c3ccc(-c4ccc(C(=O)NCC5OCC(Nc6cncc(C(F)(F)F)n6)C(O)C5O)cc4)cc3)CC1C(=O)NC(CC(=O)O)C(=O)N2 (stereo not drawn) [compound 49] |  | < 0.1 | < 0.1 | > 686 | 
4 | < 100 | CC(C)CC1NC(=O)C(Cc2cnc[nH]2)NC(=O)C(Cc2c[nH]c3ccccc23)NC(=O)C(C)NC(=O)C2CSSCC(NC(=O)C(Cc3c[nH]c4ccccc34)NC(=O)C(C(C)C)NC(=O)C(CC(C)C)NC(=O)C(CCC(=O)O)NC(=O)CNC1=O)C(=O)NC(C(C)O)C(=O)N1CCCC1C(=O)N1CC(NC(=O)CCCc3cn(CCCCCC(=O)NC(COCCC(=O)NCCOCC4OCC(Nc5nccc(C(F)(F)F)n5)C(O)C4O)COCCC(=O)NCCOCC4OCC(Nc5nccc(C(F)(F)F)n5)C(O)C4O)nn3)CC1C(=O)NC(CC(=O)O)C(=O)N2 (stereo not drawn) [compound 76] |  | < 0.1 | < 0.1 |  | 
5 |  | CC(=O)NC1C(OCCOCCOCCOCCNC(=O)CCOCC(COCCC(=O)NCCOCCOCCOCCOC2OC(CO)C(O)C(O)C2NC(C)=O)(COCCC(=O)NCCOCCOCCOCCOC2OC(CO)C(O)C(O)C2NC(C)=O)NC(=O)CCCCCn2cc(CCCC(=O)NCCOCCOCCOCCOCCC(=O)NC3CC4C(=O)NC(CC(=O)O)C(=O)NC5CSSCC(NC(=O)C(Cc6c[nH]c7ccccc67)NC(=O)C(C(C)C)NC(=O)C(CC(C)C)NC(=O)C(CCC(=O)O)NC(=O)CNC(=O)C(CC(C)C)NC(=O)C(Cc6cnc[nH]6)NC(=O)C(Cc6c[nH]c7ccccc67)NC(=O)C(C)NC5=O)C(=O)NC(C(C)O)C(=O)N5CCCC5C(=O)N4C3)nn2)OC(CO)C(O)C1O (stereo not drawn) [compound 87] | > 1000 |  | < 0.1 |  | > 1
6 |  | CC(C)CC1NC(=O)C(Cc2cnc[nH]2)NC(=O)C(Cc2c[nH]c3ccccc23)NC(=O)C(C)NC(=O)C2CSSCC(NC(=O)C(Cc3c[nH]c4ccccc34)NC(=O)C(C(C)C)NC(=O)C(CC(C)C)NC(=O)C(CCC(=O)O)NC(=O)CNC1=O)C(=O)NC(C(C)O)C(=O)N1CCCC1C(=O)N1CC(NC(=O)CCCc3cn(CC4OCC(Nc5cncc(C(F)(F)F)n5)C(O)C4O)nn3)CC1C(=O)NC(CC(=O)O)C(=O)N2 (stereo not drawn) [compound 78] | < 100 | < 0.1 | < 0.1 |  | 
7 |  | CC(C)CC1NC(=O)C(Cc2cnc[nH]2)NC(=O)C(Cc2c[nH]c3ccccc23)NC(=O)C(C)NC(=O)C2CSSCC(NC(=O)C(Cc3c[nH]c4ccccc34)NC(=O)C(C(C)C)NC(=O)C(CC(C)C)NC(=O)C(CCC(=O)O)NC(=O)CNC1=O)C(=O)NC(C(C)O)C(=O)N1CCCC1C(=O)N1CC(NC(=O)c3ccc(N4CCC(CN5CCN(CC6OCC(Nc7cncc(C(F)(F)F)n7)C(O)C6O)CC5)CC4)cc3)CC1C(=O)NC(CC(=O)O)C(=O)N2 (stereo not drawn) [compound 44] | < 100 | < 0.1 | < 0.1 |  | 
8 |  | CC(C)CC1NC(=O)C(Cc2cnc[nH]2)NC(=O)C(Cc2c[nH]c3ccccc23)NC(=O)C(C)NC(=O)C2CSSCC(NC(=O)C(Cc3c[nH]c4ccccc34)NC(=O)C(C(C)C)NC(=O)C(CC(C)C)NC(=O)C(CCC(=O)O)NC(=O)CNC1=O)C(=O)NC(C(C)O)C(=O)N1CCCC1C(=O)N1CC(NC(=O)COCCOCC(=O)NCC3OCC(Nc4cncc(C(F)(F)F)n4)C(O)C3O)CC1C(=O)NC(CC(=O)O)C(=O)N2 (stereo not drawn) [compound 50] | < 100 | < 0.1 | < 0.1 |  | 
9 |  | CC(C)CC1NC(=O)C(Cc2cnc[nH]2)NC(=O)C(Cc2c[nH]c3ccccc23)NC(=O)C(C)NC(=O)C2CSSCC(NC(=O)C(Cc3c[nH]c4ccccc34)NC(=O)C(C(C)C)NC(=O)C(CC(C)C)NC(=O)C(CCC(=O)N(C)C)NC(=O)CNC1=O)C(=O)NC(C(C)O)C(=O)N1CCCC1C(=O)N1CC(NC(=O)CNC(COCCC(=O)NCCOCCOCCOCCOCC3OCC(Nc4cncc(C(F)(F)F)n4)C(O)C3O)COCCC(=O)NCCOCCOCCOCCOCC3OCC(Nc4cncc(C(F)(F)F)n4)C(O)C3O)CC1C(=O)NC(CC(=O)O)C(=O)N2 (stereo not drawn) [compound 53] | < 100 |  | < 0.1 |  | < 0.1
10 |  | CC(C)CC1NC(=O)C(Cc2cnc[nH]2)NC(=O)C(Cc2c[nH]c3ccccc23)NC(=O)C(C)NC(=O)C2CSSCC(NC(=O)C(Cc3c[nH]c4ccccc34)NC(=O)C(C(C)C)NC(=O)C(CC(C)C)NC(=O)C(CCC(=O)O)NC(=O)CNC1=O)C(=O)NC(C(C)O)C(=O)N1CCCC1C(=O)N1CC(NC(=O)CCN3CCN(CC(=O)NCC4OCC(Nc5cncc(C(F)(F)F)n5)C(O)C4O)CC3)CC1C(=O)NC(CC(=O)O)C(=O)N2 (stereo not drawn) [compound 39] | < 100 | < 0.1 | < 0.1 |  | 
11 |  | CC(C)CC1NC(=O)C(Cc2cnc[nH]2)NC(=O)C(Cc2c[nH]c3ccccc23)NC(=O)C(C)NC(=O)C2CSSCC(NC(=O)C(Cc3c[nH]c4ccccc34)NC(=O)C(C(C)C)NC(=O)C(CC(C)C)NC(=O)C(CCC(=O)O)NC(=O)CNC1=O)C(=O)NC(C(C)O)C(=O)N1CCCC1C(=O)N1CC(NC(=O)c3ccc(C(=O)NCC4OCC(Nc5cncc(C(F)(F)F)n5)C(O)C4O)cc3)CC1C(=O)NC(CC(=O)O)C(=O)N2 (stereo not drawn) [compound 43] | > 1000 | < 0.1 | < 0.1 |  | 
12 |  | CC(C)CC1NC(=O)C(Cc2cnc[nH]2)NC(=O)C(Cc2c[nH]c3ccccc23)NC(=O)C(C)NC(=O)C2CSSCC(NC(=O)C(Cc3c[nH]c4ccccc34)NC(=O)C(C(C)C)NC(=O)C(CC(C)C)NC(=O)C(CCC(=O)N(C)C)NC(=O)CNC1=O)C(=O)NC(C(C)O)C(=O)N1CCCC1C(=O)N1CC(NC(=O)CNC(COCCC(=O)NCCOCCOCCOCCOCC3OCC(Nc4cncc(C(F)(F)F)n4)C(O)C3O)COCCC(=O)NCCOCCOCCOCCOCC3OCC(Nc4cncc(C(F)(F)F)n4)C(O)C3O)CC1C(=O)NC(CC(N)=O)C(=O)N2 (stereo not drawn) [compound 73] (cyclo(GE(NMe2)LVWCTP[ξPro(4ξ-NH2)](X1)NCAWHL); disulfide 6-11; configuration not given here) | < 100 |  | < 0.1 |  | < 0.1
13 |  | CC(C)CC1NC(=O)C(C)NC(=O)CNC(=O)C(CC(C)C)NC(=O)C(Cc2cnc[nH]2)NC(=O)C(Cc2c[nH]c3ccccc23)NC(=O)C(C)NC(=O)C2CSSCC(NC(=O)C(Cc3c[nH]c4ccccc34)NC(=O)C(C(C)C)NC1=O)C(=O)NC(C(C)O)C(=O)N1CCCC1C(=O)N1CC(NC(=O)CNC(COCCC(=O)NCCOCCOCCOCCOCC3OCC(Nc4cncc(C(F)(F)F)n4)C(O)C3O)COCCC(=O)NCCOCCOCCOCCOCC3OCC(Nc4cncc(C(F)(F)F)n4)C(O)C3O)CC1C(=O)NC(C)C(=O)N2 (stereo not drawn) [compound 71] (cyclo(GALVWCTP[ξPro(4ξ-NH2)](X1)ACAWHL); disulfide 6-11; configuration not given here) | < 100 |  | < 0.1 |  | < 0.1
